MIC data for five compounds are collected here from DBAASP.

Test systems include Escherichia coli BW25113; Candida albicans C627; Escherichia coli DC2; Escherichia coli UB1005; Citrobacter koseri; Enterococcus faecium; Escherichia coli BL21; Escherichia coli JM109; Pseudomonas aeruginosa; Salmonella enterica; Staphylococcus xylosus.
Common to all, as to test: ≥ marks a high value that may be exact or a test limit, other limits are often not marked, values filed in µg/mL are converted to µM
Experiment [1] deals with Acinetobacter baumannii ATCC 19606.
Experiment [2] has as its system Escherichia coli ATCC 25922.
For experiment [3], the system named is Escherichia coli BW25113 ΔsbmA.
The subject of experiment [4] is Klebsiella pneumoniae ATCC 700603.
Experiment [5] concerns Pseudomonas aeruginosa ATCC 27853.
Experiment [6] has as its system Salmonella enterica subsp. enterica serovar Typhimurium ATCC 14028.
For experiment [7], the system named is Staphylococcus aureus ATCC 25923.
Experiment [8] deals with Aeromonas salmonicida 97-4.
The subject of experiment [9] is Aeromonas salmonicida 99-1.
For experiment [10], the system named is Escherichia coli CGSC 4908.
The test system of experiment [11] is Pseudomonas aeruginosa K799.
Experiment [12] deals with Pseudomonas aeruginosa Z61.
Experiment [13] has as its system Salmonella enterica serovar typhimurium MS7953s.
For experiment [14], the system named is Salmonella enterica subsp. enterica serovar Typhimurium ATCC 14028s.
The subject of experiment [15] is Staphylococcus aureus C623.
Experiment [16] concerns Staphylococcus epidermidis C621.
Experiment [17] relates to Bifidobacterium adolescentis.
For experiment [18], the system named is Klebsiella pneumoniae CCRC 10694.
In experiment [19] the test system is Lactobacillus delbrueckii subsp. bulgaricus.
Experiment [20] relates to Salmonella typhimurium CCRC 12947.
In experiment [21] the test system is Staphylococcus aureus CCRC 12652.
Experiment [22] relates to Staphylococcus aureus CCRC 15211.
In experiment [23] the test system is Vibrio parahaemolyticus CCRC 10806.

The structures appear in SMILES notation. In brackets after ≈: the same amount, converted by molar mass.

As a reminder, the MIC is the lowest concentration that inhibits growth of the organism. High values mean a need for much substance, low ones inhibition by little substance. As for `CC[C@H](C)[C@H](NC(=O)[C@@H]1CCCN1C(=O)[C@@H]1CCCN1C(=O)[C@H](CCCN=C(N)N)NC(=O)[C@H](Cc1ccccc1)NC(=O)[C@@H]1CCCN1C(=O)[C@@H]1CCCN1C(=O)[C@H](Cc1ccc(O)cc1)NC(=O)[C@H](Cc1ccccc1)NC(=O)[C@@H]1CCCN1C(=O)[C@@H]1CCCN1C(=O)[C@H](CCCN=C(N)N)NC(=O)[C@@H](NC(=O)[C@@H]1CCCN1C(=O)[C@@H]1CCCN1C(=O)[C@H](CCCN=C(N)N)NC(=O)[C@H](CCCN=C(N)N)NC(=O)[C@@H](NC(=O)[C@@H]1CCCN1C(=O)[C@@H]1CCCN1C(=O)[C@@H](N)CCCN=C(N)N)[C@@H](C)CC)[C@@H](C)CC)C(=O)N[C@@H](CCCN=C(N)N)C(=O)N1CCC[C@H]1C(=O)O` [RPPIRRPPIRPPFYPPFRPPIRP], the MIC in experiment [1] is 8 µM (≈ 22.6 µg/mL); in experiment [2], 8 µM (≈ 22.6 µg/mL); in [3] it was ≥ 64 µM; with Escherichia coli BW25113, 4 µM (≈ 11.3 µg/mL); in experiment [4] it was > 64 µM; in experiment [5] it was > 64 µM. Besides, the MIC in experiment [6] and in experiment [7] was > 64 µM in each case.
With `CC[C@H](C)[C@H](NC(=O)[C@H](CCCCN)NC(=O)CNC(=O)[C@@H](NC(=O)[C@H](Cc1cnc[nH]1)NC(=O)[C@H](Cc1cnc[nH]1)NC(=O)[C@@H](NC(=O)CNC(=O)[C@H](Cc1cnc[nH]1)NC(=O)[C@H](Cc1ccccc1)NC(=O)[C@H](CC(C)C)NC(=O)[C@H](CC(C)C)NC(=O)[C@H](CCCNC(=N)N)NC(=O)[C@H](Cc1ccccc1)NC(=O)[C@@H](N)Cc1ccccc1)C(C)C)C(C)C)C(=O)N[C@@H](CCCCN)C(=O)N1CCC[C@H]1C(=O)N[C@@H](CCCNC(=N)N)C(=O)N[C@@H](C)C(C)=O` [FFRLLFHGVHHVGKIKPRA], the MIC in experiment [8] came to 14.2 µM (≈ 32 µg/mL); in [9] it was 28.3 µM (≈ 63.9 µg/mL); against Candida albicans C627, 28.3 µM (≈ 63.9 µg/mL); in experiment [10], 14.2 µM (≈ 32 µg/mL); with Escherichia coli DC2, 14.2 µM (≈ 32 µg/mL); against Escherichia coli UB1005, 14.2 µM (≈ 32 µg/mL). Besides, the MIC turned out to be 14.2 µM (≈ 32 µg/mL) in experiment [11]; 3.54 µM (≈ 7.99 µg/mL) in experiment [12]; 7.08 µM (≈ 16 µg/mL) in [13]; 28.3 µM (≈ 63.9 µg/mL) in [14]; 28.3 µM (≈ 63.9 µg/mL) in experiment [15]; 14.2 µM (≈ 32 µg/mL) in experiment [16].
Regarding `CC[C@H](C)[C@H](NC(=O)[C@H](CO)NC(=O)[C@H](CCCCN)NC(=O)[C@H](CC(C)C)NC(=O)[C@H](CCCCN)NC(=O)[C@@H](N)CC(C)C)C(=O)N[C@H](C(=O)N[C@@H](CO)C(=O)N[C@@H](Cc1ccc(O)cc1)C(=O)N[C@@H](C)C(=O)N[C@@H](CCCCN)C(=O)N[C@@H](CCCCN)C(=O)N[C@H](C(=O)N[C@@H](CC(C)C)C(N)=O)C(C)C)C(C)C` [LKLKSIVSYAKKVL], the MIC in experiment [17] is ≥ 80.5 µM; with Citrobacter koseri, 5.03 µM (≈ 8 µg/mL); in the experiment on Enterococcus faecium, ≥ 80.5 µM; in the experiment with Escherichia coli BL21, 10.1 µM (≈ 16 µg/mL); in the experiment on Escherichia coli JM109 it was 1.26 µM (≈ 2 µg/mL); in experiment [18], ≥ 80.5 µM. Besides, the MIC in experiment [19] is ≥ 80.5 µM; with Pseudomonas aeruginosa, 80.5 µM (≈ 128 µg/mL); in the experiment with Salmonella enterica, ≥ 80.5 µM; in experiment [20] it was ≥ 80.5 µM; in [21], ≥ 80.5 µM; in experiment [22], ≥ 80.5 µM. For the same compound, the minimal inhibitory concentration (MIC) was 0.629 µM (≈ 0.999 µg/mL) against Staphylococcus xylosus and ≥ 40.3 µM in [23].
As for `CC(=O)[C@H](CC(C)C)NC(=O)[C@H](Cc1ccc(O)cc1)NC(=O)[C@H](Cc1cnc[nH]1)NC(=O)[C@H](CC(=O)O)NC(=O)[C@H](CC(C)C)NC(=O)[C@H](C)NC(=O)[C@H](CC(C)C)NC(=O)CNC(=O)CNC(=O)[C@@H](NC(=O)[C@@H](NC(=O)[C@H](CCCCN)NC(=O)CNC(=O)[C@@H](NC(=O)[C@H](CCCCN)NC(=O)[C@H](CCCCN)NC(=O)[C@H](C)NC(=O)[C@H](CCCCN)NC(=O)[C@H](CCCNC(=N)N)NC(=O)[C@H](Cc1ccccc1)NC(=O)[C@@H](NC(=O)[C@H](CO)NC(=O)[C@H](CCCCN)NC(=O)[C@H](Cc1c[nH]c2ccccc12)NC(=O)CN)C(C)C)C(C)C)[C@@H](C)O)C(C)C` [GWKSVFRKAKKVGKTVGGLALDHYL], the MIC worked out at 2.9 µM (≈ 7.99 µg/mL) in experiment [8]; 2.9 µM (≈ 7.99 µg/mL) in [9]; 11.6 µM (≈ 32 µg/mL) against Candida albicans C627; 1.45 µM (≈ 4 µg/mL) in [10]; 1.45 µM (≈ 4 µg/mL) with Escherichia coli DC2; 5.8 µM (≈ 16 µg/mL) against Escherichia coli UB1005. The minimum inhibitory concentration (MIC) in [11] stood at 11.6 µM (≈ 32 µg/mL); in experiment [12], 1.45 µM (≈ 4 µg/mL); in experiment [13], 1.45 µM (≈ 4 µg/mL); in experiment [14], 11.6 µM (≈ 32 µg/mL); in experiment [15], 23.2 µM (≈ 64 µg/mL); in [16], 23.2 µM (≈ 64 µg/mL).
Regarding `CC[C@H](C)[C@H](NC(=O)[C@H](CC(N)=O)NC(=O)[C@H](CCCCN)NC(=O)[C@H](CC(C)C)NC(=O)[C@H](CCCCN)NC(=O)[C@@H](N)CC(C)C)C(=O)N[C@H](C(=O)N[C@@H](CO)C(=O)N[C@@H](Cc1c[nH]c2ccccc12)C(=O)N[C@@H](C)C(=O)N[C@@H](CCCCN)C(=O)N[C@@H](CCCCN)C(=O)N[C@H](C(=O)N[C@@H](CC(C)C)C(N)=O)C(C)C)C(C)C` [LKLKNIVSWAKKVL], the MIC in experiment [17] is ≥ 78 µM; in the experiment with Citrobacter koseri, 2.44 µM (≈ 4 µg/mL); with Enterococcus faecium, ≥ 78 µM; against Escherichia coli BL21, 4.88 µM (≈ 8 µg/mL); with Escherichia coli JM109, 1.22 µM (≈ 2 µg/mL); in experiment [18], ≥ 39 µM. The MIC in experiment [19] is ≥ 78 µM; with Pseudomonas aeruginosa, 39 µM (≈ 64 µg/mL); in the experiment on Salmonella enterica, 19.5 µM (≈ 32 µg/mL); in [20], 19.5 µM (≈ 32 µg/mL); in experiment [21] it was 13.8 µM (≈ 22.6 µg/mL); in [22] it was 19.5 µM (≈ 32 µg/mL). In addition, the minimal inhibitory concentration (MIC) in the experiment on Staphylococcus xylosus stood at 0.61 µM (≈ 0.999 µg/mL); in experiment [23] it was 9.76 µM (≈ 16 µg/mL).
